Experiment [1] relates to LPS-induced RAW264.7 cells. As to the kind of experiment: NO release from LPS-induced macrophage RAW264.7 cells (Griess). The settings on record: Mus musculus, LPS 1 μg/mL, 24 h, Griess reagent, read-out: half maximal inhibitory concentration (IC50), NO release inhibition. Type of experiment: cell-based. The protocol: The effect of the compounds I-1 to I-9 and I-13 to I-15 prepared in Example 1 on the NO release from LPS-induced macrophage RAW264.7 cells was investigated to evaluate the anti-inflammatory activity, which was specifically described as follows.
Lipopolysaccharide (LPS); indomethacin (Indomethacin, Indo, positive control); mouse mononuclear macrophages (RAW264.7); dimethyl sulfoxide (DMSO); Methylthiazolyldiphenyl-tetrazolium bromide (MTT, 5 mg/mL); and Griess reagent nitrite measurement kit (Beyotime Biotechnology Co., Ltd).
The compounds were respectively dissolved in DMSO to obtain a series of 10 mM stock solutions, which were diluted with Dulbecco's modified eagle medium (DMEM) to a required concentration (DMSO<2%) for use.
RAW264.7 cells (1×10^5 cells/mL) were inoculated into a 96-well plate at 100 μL per well and incubated at 37° C. and 5% CO2 for 12 h. Different concentrations of samples containing LPS (with a final concentration of 1 μg/mL) were respectively loaded on the plate. […] After that, the absorbance of each well of the 96-well plate at 540 nm was measured with a microplate reader and then plugged into the standard curve to calculate the NO release level. […]

Experiment [2] deals with ADP-induced platelet aggregation. The experiment can be described thus: ADP-induced platelet aggregation in vitro (platelet-rich plasma, turbidimetric method). The experiment is classed as cell-based, Kunming mice. The settings on record: 5 min; mouse platelet-rich plasma, ADP inducer, 37° C., maximum aggregation rate within 5 min; values stated as approximate; read-out: IC50, inhibition of ADP-induced platelet aggregation. The protocol: Compounds I-1 to I-9 and I-13 to I-15 prepared in Example 1 were tested for their inhibitory effects on the ADP-induced platelet aggregation in vitro to evaluate the anti-thrombotic activities, and the test process was specifically described as follows.
Kunming mice were anesthetized with pentobarbital sodium, and blood was collected from the celiac artery, where the syringe was added with 3.2% sodium citrate for anti-coagulation in advance (a volume ratio of whole blood to the anticoagulant was 9:1). The mixture was gently mixed and centrifuged at 1000 r/min for 10 min to collect the supernatant as the platelet-rich plasma (PRP). The remaining part was centrifuged at 3000 r/min for 10 min to obtain platelet-poor plasma (PPP). […]
For the blank control group, 1% DMSO was mixed with 295 μL of PRP; for the drug group, 5 μL of the isaridin derivatives with different concentrations (a final concentration of 0-100 μM) was mixed with 295 μL of PRP; and regarding the positive control group, aspirin was mixed with plasma to a final concentration of 120 μM. […] Three parallel samples were tested for each group, and the platelet aggregation rate was measured at 37° C. by turbidimetric method, where the maximum aggregation rate within 5 min was recorded.
The platelet aggregation rate was expressed as the maximum platelet aggregation rate, and the results were expressed as the inhibition rate. […]

Regarding `COc1ccc2c(c1)c(CC(=O)O)c(C)n2C(=O)c1ccc(Cl)cc1` [indomethacin], the IC50 in experiment [1] amounted to 38 µM.

Regarding `CC(=O)Oc1ccccc1C(=O)O` [aspirin], the IC50 in experiment [2] was determined as 120 µM.
